Data as given in US7858630B2, “D3 and 5-HT2A receptor modulators” (Hoffmann-La Roche Inc., priority 2008, dated 2010).

Tests used:
[1] = target: T1, human dopamine D3 receptor (Homo sapiens, UniProt P35462); experiment: Radioligand binding ([3H]-spiperone) to membranes of HEK-293 EBNA cells expressing human D3 receptor; conditions: human D3, 0.5 nM [3H]-spiperone, HEK-293 EBNA membranes, 1 h at RT
T1 construct: expressed in transfected cells; host or cells: HEK-293 EBNA cells, transient transfection; membrane preparation
T1 sequence (P35462 whole entry): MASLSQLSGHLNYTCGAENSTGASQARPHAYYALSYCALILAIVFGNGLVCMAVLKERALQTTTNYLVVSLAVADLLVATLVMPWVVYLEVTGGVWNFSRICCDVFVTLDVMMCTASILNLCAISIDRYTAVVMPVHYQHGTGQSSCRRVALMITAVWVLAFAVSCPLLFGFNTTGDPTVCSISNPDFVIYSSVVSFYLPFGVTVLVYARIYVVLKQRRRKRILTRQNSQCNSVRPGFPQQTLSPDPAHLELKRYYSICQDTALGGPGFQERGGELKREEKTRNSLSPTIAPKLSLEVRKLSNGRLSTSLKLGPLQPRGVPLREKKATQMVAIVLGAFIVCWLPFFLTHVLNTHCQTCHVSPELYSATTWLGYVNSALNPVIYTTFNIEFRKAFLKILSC
Experimental: (§1) The ability of the compounds to bind to the 5-HT2A, D3 and D2 receptors was determined using radioligand binding to cloned receptors selectively expressed in HEK-293 EBNA cells.
(§2) Membrane Preparation for Human D2, Human D3 and Human 5-HT2A Receptors
(§3) HEK-293 EBNA cells were transiently transfected with expression plasmids encoding for the human D2 or D3 dopamine- or for the human 5-HT2A serotonin receptor, respectively. The cells were harvested 48 h post-transfection, washed three times with cold PBS and stored at −80° C. prior to use. The pellet was suspended in cold 50 mM Tris-HCl buffer containing 10 mM EDTA (pH 7.4) and homogenized with a Polytron (Kinematica AG, Basel, Switzerland) for 20-30 sec at 12.000 rpm. After centrifugation at 48.000×g for 30 min at 4° C., the pellet was resuspended in cold 10 mM Tris-HCl buffer containing 0.1 mM EDTA (pH 7.4), homogenized, and centrifuged as above. This pellet was further resuspended in a smaller volume of ice cold 10 mM Tris-HCl buffer containing 0.1 mM EDTA (pH 7.4) and homogenized with a Polytron for 20-30 sec at 12.000 rpm. The protein content of this homogenate was determined with the Bio-Rad (Bradford) Protein Assay (Biorad Laboratories GmbH, München, Germany) according to the instructions of the manufacturer using gamma globulin as the standard. This homogenate was stored at −80° C. in aliquots and thawed immediately prior to use.
(§4) Radioligand Binding Assay Conditions
(§5) Aliquots of membrane preparations were thawed at RT, resupended in assay buffer (D2, D3: 50 mM Tris-HCl, 120 mM NaCl, 5 mM MgCl2, 1 mM EDTA, 5 mM KCl, 1.5 mM CaCl2, pH=7.4; 5-HT2A: 50 mM Tris-HCl, 10 mM MgCl2, 1 mM EGTA, pH=7.4), homogenized with a Polytron for 20-30 sec at 12.000 rpm and adjusted to a final concentration of approximately 7.5 μg protein/well (D2, D3) and 15 μg protein/well (5-HT2A), respectively.
(§6) The binding affinity (Ki) of the compounds was determined using radioligand binding. Membranes were incubated in a total volume of 200 μl with a fixed concentration of radioligand (final concentration approximately 0.7 nM [^3H]-spiperone for D2, 0.5 nM [^3H]-spiperone for D3, and 1.1 nM [^3H]-ketanserin for 5-HT2A) and ten concentrations of test compound in ranging between 10 μM-0.1 nM for 1 h at RT. At the end of the incubation, the reaction mixtures were filtered on to unifilter 96-well white microplates with bonded GF/C filters (Packard BioScience, Zurich, Switzerland; preincubated for 1 h in 0.1% polyethylenimine (PEI) in assay buffer) with a Filtermate 196 harvester (Packard BioScience) and washed 3 times with cold assay buffer. The nonspecific binding was determined with equally composed reaction mixtures in the presence of 10 μM unlabelled spiperone. Per well 45 μl of Microscint 40 (Perkin Elmer, Schwerzenbach, Switzerland) was added, plates for sealed, shaken for 20 min and counted for 3 min on a Topcount Microplate Scintillation Counter (Canberra Packard SA, Zurich, Switzerland) with quenching correction.
(§7) The CPM value for each duplicate of a concentration of competing compound was averaged (y1), then the % specific binding was calculated according to the equation (((y1−non-specific)/(total binding-non-specific))×100). Graphs were plotted with the % specific binding using XLfit, a curve fitting program that iteratively plots the data using Levenburg Marquardt algorithm. The single site competition analysis equation used was y=A+((B−A)/(1+((x/C)^D))), where y is the % specific binding, A is the minimum y, B is the maximum y, C is the IC50, x is the log10 of the concentration of the competing compound and D is the slope of the curve (the Hill Coefficient). From these curves the IC50 (inhibition concentration at which 50% specific binding of the radioligand was displaced) and Hill coefficient were determined. […]

[2] = target: T2, human dopamine D2 receptor (Homo sapiens, UniProt P14416); experiment: Radioligand binding ([3H]-spiperone) to membranes of HEK-293 EBNA cells expressing human D2 receptor; conditions: human D2, 0.7 nM [3H]-spiperone, HEK-293 EBNA membranes, 1 h at RT
T2 construct: expressed in transfected cells; host or cells: HEK-293 EBNA cells, transient transfection; membrane preparation
T2 sequence (P14416 whole entry): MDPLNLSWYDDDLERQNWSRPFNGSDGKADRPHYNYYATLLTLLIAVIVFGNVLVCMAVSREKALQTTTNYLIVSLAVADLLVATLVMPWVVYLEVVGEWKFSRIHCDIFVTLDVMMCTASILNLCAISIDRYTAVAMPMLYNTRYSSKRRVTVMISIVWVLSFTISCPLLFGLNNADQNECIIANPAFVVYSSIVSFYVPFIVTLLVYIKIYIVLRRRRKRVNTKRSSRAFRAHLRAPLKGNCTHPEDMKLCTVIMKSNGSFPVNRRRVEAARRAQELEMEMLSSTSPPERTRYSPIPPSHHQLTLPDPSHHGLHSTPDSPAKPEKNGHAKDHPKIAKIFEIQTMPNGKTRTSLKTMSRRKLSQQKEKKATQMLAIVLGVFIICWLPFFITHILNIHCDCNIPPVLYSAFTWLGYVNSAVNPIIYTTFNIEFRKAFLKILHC
Experimental: as §1, §2, §3, §4, §5, §6, §7

[3] = target: T3, human serotonin 5-HT2A receptor (Homo sapiens, UniProt P28223); experiment: Radioligand binding ([3H]-ketanserin) to membranes of HEK-293 EBNA cells expressing human 5-HT2A receptor; conditions: 1.1 nM [3H]-ketanserin, HEK-293 EBNA membranes, 1 h at RT
T3 construct: expressed in transfected cells; host or cells: HEK-293 EBNA cells, transient transfection; membrane preparation
T3 sequence (P28223 whole entry): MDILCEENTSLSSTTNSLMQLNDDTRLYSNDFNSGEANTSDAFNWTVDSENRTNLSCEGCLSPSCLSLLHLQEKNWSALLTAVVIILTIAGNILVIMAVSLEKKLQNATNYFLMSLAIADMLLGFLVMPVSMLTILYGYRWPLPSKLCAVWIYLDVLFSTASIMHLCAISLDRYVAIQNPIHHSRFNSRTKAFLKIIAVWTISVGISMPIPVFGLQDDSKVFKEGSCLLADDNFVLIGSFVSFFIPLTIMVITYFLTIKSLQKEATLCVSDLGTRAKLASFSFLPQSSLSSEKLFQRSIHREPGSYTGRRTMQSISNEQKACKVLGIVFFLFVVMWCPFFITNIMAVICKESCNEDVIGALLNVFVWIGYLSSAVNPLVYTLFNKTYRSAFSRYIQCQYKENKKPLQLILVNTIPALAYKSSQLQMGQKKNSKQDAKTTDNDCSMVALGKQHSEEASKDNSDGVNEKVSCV
Experimental: as §1, §2, §3, §4, §5, §6, §7

SMILES	Ki [1] [nM]	Ki [2] [nM]	Ki [3] [nM]
Cc1cc2c(N3CCN(CC[C@H]4CC[C@H](NC(=O)C[C@H]5COCCO5)CC4)CC3)noc2cc1F [Example 115, 2-(S)-[1,4]Dioxan-2-yl-N-trans-(4-{2-[4-(6-fluoro-5-methyl-benzo[d]isoxazol-3-yl)-piperazin-1-yl]-ethyl}-cyclohexyl)-acetamide]	38	> 9700	10
O=C(C[C@H]1CCCCO1)N[C@H]1CC[C@H](CCN2CCN(c3noc4cc(Cl)ccc34)CC2)CC1 [Example 49, N-trans-(4-{2-[4-(6-Chloro-benzo[d]isoxazol-3-yl)-piperazin-1-yl]-ethyl}-cyclohexyl)-2-(R)-tetrahydro-pyran-2-yl-acetamide]	20.6	1020	8.48
CO[C@H]1CC[C@H](CC(=O)N[C@H]2CC[C@H](CCN3CCN(c4noc5cc(F)c(Cl)cc45)CC3)CC2)CC1 [Example 88, N-trans-(4-{2-[4-(5-Chloro-6-fluoro-benzo[d]isoxazol-3-yl)-piperazin-1-yl]-ethyl}-cyclohexyl)-2-trans-(4-methoxy-cyclohexyl)-acetamide]	31.1	11200	16.7
COCC(=O)N[C@H]1CC[C@H](CCN2CCN(c3noc4cc(F)c(C)cc34)CC2)CC1 [Example 107, N-trans-(4-{2-[4-(6-Fluoro-5-methyl-benzo[d]isoxazol-3-yl)-piperazin-1-yl]-ethyl}-cyclohexyl)-2-methoxy-acetamide]	20	674	11.2
O=C(N[C@H]1CC[C@H](CCN2CCN(c3noc4cc(Cl)ccc34)CC2)CC1)C(O)C(F)(F)F (mixture of isomers) [Example 33, N-trans-(4-{2-[4-(6-Chloro-benzo[d]isoxazol-3-yl)-piperazin-1-yl]-ethyl}-cyclohexyl)-rac-3,3,3-trifluoro-2-hydroxy-propionamide]	14.8	362	12.4

Stronger by Ki [1], values ahead:

Ki [1] [nM]	Ki [2] [nM]	Ki [3] [nM]	SMILES
8.68	490	8.59	COCCC(=O)N[C@H]1CC[C@H](CCN2CCN(c3noc4cc(Cl)ccc34)CC2)CC1 [Example 29, N-trans-(4-{2-[4-(6-Chloro-benzo[d]isoxazol-3-yl)-piperazin-1-yl]-ethyl}-cyclohexyl)-3-methoxy-propionamide]
6.34	752	15.4	O=C(CC1COCCO1)N[C@H]1CC[C@H](CCN2CCN(c3noc4ccc(F)cc34)CC2)CC1 (stereo partly drawn) [Example 15, 2-[1,4]Dioxan-2-yl-N-trans-(4-{2-[4-(5-fluoro-benzo[d]isoxazol-3-yl)-piperazin-1-yl]-ethyl}-cyclohexyl)-acetamide]
5.8	207	5.92	CCC(=O)N[C@H]1CC[C@H](CCN2CCN(c3noc4cc(C)ccc34)CC2)CC1 [Example 99, N-trans-(4-{2-[4-(6-Methyl-benzo[d]isoxazol-3-yl)-piperazin-1-yl]-ethyl}-cyclohexyl)-propionamide]
1.96	–	6	O=C(CC(F)(F)F)N[C@H]1CC[C@H](CCN2CCN(c3noc4cc(F)c(Cl)cc34)CC2)CC1 [Example 93, N-trans-(4-{2-[4-(5-Chloro-6-fluoro-benzo[d]isoxazol-3-yl)-piperazin-1-yl]-ethyl}-cyclohexyl)-3,3,3-trifluoro-propionamide]
1.65	1500	5.92	O=C(CC1CC1)N[C@H]1CC[C@H](CCN2CCN(c3noc4cc(F)c(Cl)cc34)CC2)CC1 [Example 75, N-trans-(4-{2-[4-(5-Chloro-6-fluoro-benzo[d]isoxazol-3-yl)-piperazin-1-yl]-ethyl}-cyclohexyl)-2-cyclopropyl-acetamide]
0.58	197	1.84	COC(=O)N[C@H]1CC[C@H](CCN2CCN(c3noc4cc(F)c(Cl)cc34)CC2)CC1 [Example 91, N-trans-(4-{2-[4-(5-Chloro-6-fluoro-benzo[d]isoxazol-3-yl)-piperazin-1-yl]-ethyl}-cyclohexyl)-carbamic acid methyl ester]
